According to patent US20260355180A1, “COMPOSITIONS AND METHODS FOR SPLICEOSOME-TARGETED THERAPIES” (Institute for Cancer Research d/b/a The Research Institute …, priority 2022, published 2026):

How the values were obtained:
MEF ΔZBP1 cells = assay: A-RNA and Z-NA accumulation in MEF ΔZBP1; assay type: cell-based, mouse
Description: (§1) FIG. 5A-5E: SF3B1 perturbation upregulates A-RNA and Z-nucleic acids in MEFs. (FIG. 5A) 5 nM of PlaB induces A-RNA and Z-Nucleic acids in ΔZBP1 MEF cells. (FIG. 5B) Quantification of A-RNA and Z-Nucleic acids. […] Plots of signal intensity are mean±SEM, two-tailed unpaired Student's t test *p<0.05, ***p<0.001, ****p<0.0001. 18 hours of PlaB treatment for IF, WB and rescue experiments. IF: 5 nM PlaB, WB and rescue experiments: 2.5 nM PlaB.
(§2) Since induction of Z-nAs can result in ZBP1-dependent necroptosis, we analyzed induction of necroptosis in necroptotic competent MEFs using spliceosome inhibition. […] We also determined that MEFs ΔZBP1, WT, and Flag-ZBP1 cells treated with PlaB began dying within 24hours after treatment. With MEF Flag-ZBP1 cells showing only 20% survival after 24 hours (FIG. 16).

H82 KO cells = assay: CytoToxicity of PlaB in TNFR1-, TRADD-, FADD-, CASP8-KO H82 cells (trypan blue); assay type: cell-based; settings: 2.5 nM PlaB, 18 hrs
Text: (§3) […]: CytoToxicity analysis of PlaB in TNFR1-KO and TRADD-KO H82 cells […] and H446 cells (FIG. 16B). CytoToxicity analysis of PlaB in FADD-KO and CASP8-KO H82 cells (FIG. 16C) and H446 cells (FIG. 16D). EV refers to cells treated with an empty vector.
(§4) Since RIPK1 mediated apoptosis can be triggered by TNF110, TNFR1 and TRADD-KO SCLC cell lines are generated herein for subsequent studies. Here, we utilize CRISPR-Cas9 KO to effectively knockout TNFR1 and TRADD in SCLC cells. To confirm depletion of TNFR1 and TRADD proteins, cell lysates are collected and western blot analysis is performed. The following experiments are performed using the TNFR1 and TRADD-KO SCLC cells generated above.
(§5) H82 and H446 WT and TNFR1 and TRADD-KO cells generated above are treated with DMSO or 2.5 nM PlaB for 18 hrs. Then, the cells are counted using 0.4% trypan blue solution assessing total viable cells and the percent of cell survived with the H82 and H446 WT cells is compared. (FIG. 15A-15B) This allows us to confirm whether TNF is partially or fully responsible for PlaB-mediated cell death in SCLC cell lines.
(§6) Additionally, we analyzed the role played by FADD and CAPS8 in rescuing H82 and H446 cells from PlaB induced toxicity. Using the methods described above for the generation of TNFR1 and TRADD-KO cells, H82 and H446 FADD-KO cells and H82 and H446 CASP8-KO cells were generated. These cells were then treated with DMSO or 2.5 nM PlaB for 18 hrs and compared to WT H82 and H446 cells. […] (FIG. 15C and FIG. 15D)

H446 SCLC cells [1] = assay: Antigen (HLA-ABC) and PD-L1 expression, H446; assay type: cell-based, human; settings: 48 hours of 0.5 nM PlaB
Text: (§7) FIG. 3A-3D: SF3B1 inhibition induces a potent IFN response and increases expression of IFN-regulated proteins. […] Mean±SEM, two-tailed unpaired Student's t test *p<0.05, **p<0.01, ***p<0.001, ****p<0.0001.
(§8) We also observed that SF3B1 inhibition triggers robust anti-tumor response and upregulates IFN-β, IFN-γ, and IFN-responsive genes by real-time reverse-transcription quantitative polymerase chain reaction (rRT-qPCR) in H446 and H82 cells (FIGS. 3A and 3B). […] These observations indicate that spliceosome inhibition is useful as a targeted therapy for SCLCs.

H82 SCLC cells [2] = assay: RIPK1 depletion rescue of PlaB cytotoxicity, H82; assay type: cell-based; settings: 18 hours of PlaB, RIPK1 depleted H82
Description: FIG. 2A) SCLC cell lines (H446 and H82) and immortalized fibroblasts (FC1010 and HS68) cell survival curves after 72 hours of PlaB treatment. FIG. 2B) RIPK1 depletion rescues H82 and H446 cell survival after 18 hours of PlaB treatment. FIG. 2C) Western blot showing RIPK1 protein depletion. Mean±SEM, Welch's t test *p<0.05, **p<0.01.
Cancer deregulates splicing^31,32, and we hypothesized that hyper-proliferative SCLCs are dependent on splicing machineries for increased tumorigenicity^90.

WT MEF cells = assay: Survival of PlaB treated MEF WT; assay type: cell-based, mouse
Description: FIG. 16: Analysis of the effect of spliceosome inhibition on necroptosis in WT MEF cells. EV refers to cells treated with an empty vector.
as §2

MEF cells = assay: A-RNA and Z-NA in MEF after PlaB with or without nucleases; assay type: cell-based, mouse
Description: FIG. 11A-11B: Analysis of Z-NA and A-RNA sources. (FIG. 11A) […] A-Nucleic acid accumulation in MEF cells after treatment with PlaB with or without Dnasel, RnaseA, or Rnase H. (FIG. 11B) Quantification of A-RNA and Z-Nucleic acids in treated cells. MEF EV refers to MEF cells treated with an empty vector.
The increases in A-RNA and Z-NA was further analyzed in MEF cells. Cells were treated with PlaB alone, or in combination with dNasel (dsDNA), rNaseA(dsRNA at [high]), or […] (DNA/RNA hybrid). […] (FIG. 11A-11B).

H446 SCLC cells [3] = assay: IFN response by rRT-qPCR, H446; assay type: cell-based, human; settings: dose-dependent
Text: as §7, §8

H82 SCLC cells [4] = assay: Antigen (HLA-ABC) and PD-L1 expression, H82; assay type: cell-based; settings: 48 hours of 0.5 nM PlaB
Text: as §7, §8

MEF ΔZα cells = assay: pMLKL western blot / necroptosis, MEF ΔZα; assay type: cell-based, mouse; settings: 2.5 nM PlaB, 18 hours
Description: as §1, §2

H446 cells = assay: MAVS knock out rescue of PlaB-mediated cell death, H446; assay type: cell-based, human; settings: MAVS KO H446; data not shown
Text: Currently, ZBP1 and ADAR1 are the only two known proteins harbor Zα and interact with Z-NAs^104-109.

H446 KO cells = assay: CytoToxicity of PlaB in TNFR1-, TRADD-, FADD-, CASP8-KO H446 cells (trypan blue); assay type: cell-based, human; settings: 2.5 nM PlaB, 18 hrs
Text: as §3, §4, §5, §6

[5] = PlaB and dNasel, rNaseA, or RnaseH

Q: For `CCC(O)C(C)C1OC1CC(C)C=CC=C(C)C1OC(=O)CC(O)CCC(C)(O)C(OC(C)=O)C=CC1C` (stereo not drawn) [PlaB, Pladienolide B], which A-RNA induction (MEF ΔZBP1 cells; 5 nM PlaB, 18 hours) is on record?
A: The A-RNA induction was “induces”.

Q: And the Z-Nucleic acids induction (MEF ΔZBP1 cells; 5 nM PlaB, 18 hours)?
A: The Z-Nucleic acids induction was “induces”.

Q: And the “A-RNA and Z-NA accumulation” value (MEF ΔZBP1 cells; SF3B1 inhibition)?
A: Its value is “accumulation”.

Q: What about the “rescue from PlaB toxicity by CASP8-KO” value (H82 KO cells; H82 CASP8-KO) of the same compound?
A: Its value is “effectively rescued”.

Q: And the “rescue from PlaB toxicity by FADD-KO” value (H82 KO cells; H82 FADD-KO)?
A: Its value is “effectively rescued”.

Q: And the “rescue from PlaB toxicity by TNFR1-KO” value (H82 KO cells; H82 TNFR1-KO)?
A: Its value is “effectively rescued”.

Q: And the “rescue from PlaB toxicity by TRADD-KO” value (H82 KO cells; H82 TRADD-KO)?
A: Its value is “effectively rescued”.

Q: What about the PD-L1 expression (H446 SCLC cells [1]) of the same compound?
A: Its PD-L1 expression is “effectively upregulates”.

Q: And the antigen expression (H446 SCLC cells [1])?
A: The antigen expression was “effectively upregulates”.

Q: What about the “cell survival upon RIPK1 depletion” value (H82 SCLC cells [2]) of the same compound?
A: The value was “rescues”.

Q: What about the “time after treatment at which cells began dying” value (WT MEF cells) of the same compound?
A: The value was ≤ 24 h.

Q: What about the “A-RNAs and Z-nAs” value (MEF cells; PlaB alone) of the same compound?
A: Its value is “increase in both A-RNAs and Z-nAs”.

Q: And the “A-RNAs and Z-nAs” value (MEF cells; [5])?
A: The value was “still showed an increase in A-RNAs and Z-nAs”.

Q: What about the “increase in A-RNAs relative to PlaB alone” value (MEF cells; [5]) of the same compound?
A: The value was “not as robust as PlaB alone”.

Q: What about the IFN response (H446 SCLC cells [3]) of the same compound?
A: The IFN response was “induces potent IFN response”.

Q: And the PD-L1 expression (H82 SCLC cells [4])?
A: Its PD-L1 expression is “effectively upregulates”.

Q: And the antigen expression (H82 SCLC cells [4])?
A: The antigen expression was “effectively upregulates”.

Q: What about the “pMLKL (necroptosis)” value (MEF ΔZα cells; MEF ΔZα) of the same compound?
A: The value was “not triggered”.

Q: What about the PlaB-mediated necroptosis (MEF ΔZα cells; MEF ΔZα mutant) of the same compound?
A: Its PlaB-mediated necroptosis is “avoid PlaB-mediated necroptosis”.

Q: What about the “rescue of PlaB-mediated cell death by MAVS knock out” value (H446 cells) of the same compound?
A: Its value is “only minimally rescue”.

Q: What about the “rescue from PlaB toxicity by CASP8-KO” value (H446 KO cells; H446 CASP8-KO) of the same compound?
A: Its value is “effectively rescued”.

Q: What about the “rescue from PlaB toxicity by FADD-KO” value (H446 KO cells; H446 FADD-KO) of the same compound?
A: The value was “effectively rescued”.

Q: What about the “rescue from PlaB toxicity by TNFR1-KO” value (H446 KO cells; H446 TNFR1-KO) of the same compound?
A: Its value is “effectively rescued”.

Q: And the “rescue from PlaB toxicity by TRADD-KO” value (H446 KO cells; H446 TRADD-KO)?
A: The value was “effectively rescued”.
